Patent US4000280A, “Pharmaceutical compositions containing an amphetamine derivative for the alleviation of anxiety or treatment of depression” (Astra Lakemedel Aktiebolag, priority 1975, dated 1976)

Legend:
[1] = test system: mice; experiment: Motor activity in mice (exploratory activity in locomotion cage); format: in vivo; design: key to Motor Activity: +: increase; -: decrease; 0: no effect; details: for Motor Activity: recorded for 10 minutes 1 hour after administration, compared to control groups, i.p.; for central stimulation (in words): motor activity in mice
Method: The lack of euphoric effects, that is lack of central stimulatory activity, is tested by measuring the motor activity in mice after administration of the test substance.
The exploratory activity of mice was recorded in a locomotion cage in which the movements were counted each time the animals cross-circuits an electrical current in the bottom plate. The activity was recorded for 10 minutes 1 hour after the administration of the drug. The animals were tested individually. Groups of six mice were used and the mice were only used once. The activity was expressed in percent of the activity of control groups ran simultaneously. The compounds were administered in at least four doses. The increase (+) or decrease (-) of the activity compared to control groups was determined from log dose response curves.

[2] = test system: 5-HTP response; experiment: 5-HTP response potentiation test (potentiation of behavioral syndrome after dl-5-HTP); format: in vivo, mice; details: Mus musculus, ip; dl-5-HTP 90 mg/kg i.v.; at least five doses; probit analysis (Litchfield and Wilcoxon)
Description: It is not possible by experimental means to induce depressions in laboratory animals. In order to evaluate a possible anti depressive effect on new substances biochemical-pharmacological test methods must be resorted to. One such method, which seems to give a good indication of the potential anti depressive effects of the test substances, is described in Europ. J. Pharmacol. 17, 107, 1972. This method involves the measurement of the potentiation of the syndromes produced by 5-hydroxytryptophan (5-HTP) in a laboratory animal.
Inhibition of the uptake of 5-HT potentiates the effects of administered 5-hydroxytryptophan (5-HTP) probably by increasing the amount of 5-HT at the receptor. Three mice are given the test drugs 1 hour (or 4, 24 hours) before dl-5-HTP, 90 mg/kg i.v. 5-HTP alone gives only a weak behavioral syndrome but in pretreated mice there is seen a characteristic behavioral syndrome, which comes within 5 minutes: tremor, lordosis, abduction of the hind-legs, head-twitches.
The absence or presence of respective syndrome is scored in groups of 10 mice. The compound was administered in at least five doses and the quantal responses were analysed by probit analysis and ED50 determined according to the method of Litchfield and Wilcoxon.

[3] = test system: isolated mice; experiment: Aggressive behavior in isolated male mice (antiaggressive activity); format: in vivo; details: Mus musculus, ip, 5 min; i.p.; dose which reduces the aggressiveness score by 50%; 5 min test; read-out: Antiaggressive behaviour in mice ED50
Method: Potential anxiolytic activity is tested by measuring the antiaggressivity in isolated mice after administration of the test substance. In this test not amphetamine but Valium -- a well-known anxiolytic substance -- is used as a reference.
Male mice kept isolated for 3 weeks or longer develop an aggressive behavior when caged together. The method used follows that of Valzelli et al. (Europ. J. Pharmacol. 2, 144, 1967), with the exception that two mice were tested on each other. The aggressiveness was scored during a 5 min test according to the following schedule:
0 the animals show no interest in each other except occasional nosing
25 frequent vigorous nosing and tail rattling, the animals assume a fighting position and occasionally attack each other -- no more than 3-4 times in the 5 min period
50 tail rattling, powerful attacks -- no more than 10 times in the test period
75 the animals follow their partners, attacking and biting for most of the time
100 attacks over the entire period.
The animals were used for several experiments but with intervals of at least 1 week. Groups of 10 mice were used.
ED50 is the dose which reduces the aggressiveness score by 50%.

Compound	Motor Activity [1]	also measured
CC(N)Cc1c(Cl)cc(N(C)C)cc1Cl.Cl.Cl (stereo not drawn) [2-Cl 6-Cl CH3 CH3 H CH3, 2,6-Dichloro-4-dimethylamino-α-methylphenethylamine dihydrochloride]	-	
CC(N)Cc1ccccc1 (stereo not shown) [Amphetamine]		central stimulation (in words) [1]: pronounced
Cc1cc(N(C)C)ccc1CC(C)N.Cl.Cl (stereo not drawn) [H 2-CH 3 CH3 CH3 H CH3, 2-Methyl-4-dimethylamino-α-methylphenethylamine dihydrochloride]	-	
CCC(N)Cc1ccc(N(C)C)cc1Cl (stereo not shown) [H 2-Cl CH3 CH3 H C2 H5]	0	
CC(N)Cc1ccc(N(C)C)cc1Cl.Cl.Cl (stereo not drawn) [H 2-Cl CH3 CH3 H CH3, 2-Chloro-4dimethylamino-α-methylphenethylamine dihydrochloride]	-	
CCN(CC)c1ccc(CC(C)N)cc1 (stereo not shown) [H H C2 H5 C2 H5 H CH3]	-	
CC(N)Cc1ccc2c(c1)CCCN2C.Cl.Cl (stereo not shown) [H H CH3 (CH2)3 H CH3, 6-(2-Aminopropyl)-1-methyl-1,2,3,4-tetrahydroquinoline dihydrochloride]		ED50 [2]: 1.5 mg/kg; ED50 [3]: > 5 mg/kg
CN(C)c1ccc(CC(C)(C)N)cc1.Cl.Cl [H H CH3 CH3 CH3 CH3, 4-Dimethylamino-α, α-dimethylphenethylamine dihydrochloride]	0	
CC(N)Cc1ccc(Cl)cc1 (stereo not shown) [P-Chloroamphetamine, reference compound]		central stimulation (in words) [1]: pronounced
